# ChEMBL document CHEMBL4706694, “Novel bicyclic pyrazoles as potent ALK2 (R206H) inhibitors for the treatment of fibrodysplasia ossificans progressiva” (Bioorg Med Chem Lett, 2021)
# Assays:
# [1] = target: MDR1 (ABCB1, P-glycoprotein) (Homo sapiens, UniProt P08183); test: Substrate activity at human MDR1 expressed in MDCK-II cells assessed as apparent permeability across apical to basolateral membrane at 10 uM by LC-MS/MS analysis; assay type: ADME, cell-based
# [2] = Inhibition of ALK2 R206H in mouse C2C12 cells assessed as reduction in BMP-induced ALP activity using p-nitrophenyl phosphate as substrate
# [3] = Metabolic stability in human liver microsomes assessed as parent compound remaining incubated for 60 mins in presence of NADPH by LC-MS/MS analysis; assay type: ADME, Microsome; details: read-out: Stabilty
# hERG (KCNH2) = hERG (KCNH2) (Homo sapiens, UniProt Q12809); test: Inhibition of human ERG at 10 uM by automated patch method relative to control
# Chain of hERG (KCNH2) (Q12809 whole entry): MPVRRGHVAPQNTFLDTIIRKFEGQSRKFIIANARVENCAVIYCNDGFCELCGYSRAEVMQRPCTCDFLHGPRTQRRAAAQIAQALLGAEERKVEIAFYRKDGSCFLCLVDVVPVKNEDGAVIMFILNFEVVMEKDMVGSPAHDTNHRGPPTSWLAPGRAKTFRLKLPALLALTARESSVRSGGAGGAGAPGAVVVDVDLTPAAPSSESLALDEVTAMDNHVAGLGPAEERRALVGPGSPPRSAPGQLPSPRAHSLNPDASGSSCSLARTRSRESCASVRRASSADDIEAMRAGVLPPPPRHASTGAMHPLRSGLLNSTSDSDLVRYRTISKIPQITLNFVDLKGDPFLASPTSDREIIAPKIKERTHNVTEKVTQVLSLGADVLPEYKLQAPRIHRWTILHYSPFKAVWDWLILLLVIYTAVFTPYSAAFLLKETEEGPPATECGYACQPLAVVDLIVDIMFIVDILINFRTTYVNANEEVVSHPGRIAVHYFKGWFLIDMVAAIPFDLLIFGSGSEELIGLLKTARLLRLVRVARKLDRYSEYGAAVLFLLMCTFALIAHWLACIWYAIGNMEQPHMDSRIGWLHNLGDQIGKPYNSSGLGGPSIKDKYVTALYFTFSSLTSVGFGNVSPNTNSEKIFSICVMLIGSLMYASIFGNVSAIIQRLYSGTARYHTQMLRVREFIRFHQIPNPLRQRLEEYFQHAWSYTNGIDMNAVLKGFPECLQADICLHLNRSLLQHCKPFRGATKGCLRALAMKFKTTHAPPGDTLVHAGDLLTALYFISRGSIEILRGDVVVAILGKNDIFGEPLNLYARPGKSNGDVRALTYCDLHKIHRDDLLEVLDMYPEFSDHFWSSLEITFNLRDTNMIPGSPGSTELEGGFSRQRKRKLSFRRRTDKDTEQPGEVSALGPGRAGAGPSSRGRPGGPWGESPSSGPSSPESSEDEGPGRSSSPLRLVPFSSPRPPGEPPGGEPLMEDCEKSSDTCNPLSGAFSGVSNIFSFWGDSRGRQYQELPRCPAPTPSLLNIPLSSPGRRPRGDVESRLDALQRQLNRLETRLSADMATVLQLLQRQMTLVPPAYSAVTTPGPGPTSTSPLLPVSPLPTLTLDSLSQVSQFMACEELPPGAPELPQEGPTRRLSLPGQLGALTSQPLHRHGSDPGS
# [4] = Metabolic stability in rat liver microsomes assessed as parent compound remaining incubated for 60 mins in presence of NADPH by LC-MS/MS analysis; details: read-out: Stabilty
# Chain of MDR1 (ABCB1, P-glycoprotein) (P08183 whole entry): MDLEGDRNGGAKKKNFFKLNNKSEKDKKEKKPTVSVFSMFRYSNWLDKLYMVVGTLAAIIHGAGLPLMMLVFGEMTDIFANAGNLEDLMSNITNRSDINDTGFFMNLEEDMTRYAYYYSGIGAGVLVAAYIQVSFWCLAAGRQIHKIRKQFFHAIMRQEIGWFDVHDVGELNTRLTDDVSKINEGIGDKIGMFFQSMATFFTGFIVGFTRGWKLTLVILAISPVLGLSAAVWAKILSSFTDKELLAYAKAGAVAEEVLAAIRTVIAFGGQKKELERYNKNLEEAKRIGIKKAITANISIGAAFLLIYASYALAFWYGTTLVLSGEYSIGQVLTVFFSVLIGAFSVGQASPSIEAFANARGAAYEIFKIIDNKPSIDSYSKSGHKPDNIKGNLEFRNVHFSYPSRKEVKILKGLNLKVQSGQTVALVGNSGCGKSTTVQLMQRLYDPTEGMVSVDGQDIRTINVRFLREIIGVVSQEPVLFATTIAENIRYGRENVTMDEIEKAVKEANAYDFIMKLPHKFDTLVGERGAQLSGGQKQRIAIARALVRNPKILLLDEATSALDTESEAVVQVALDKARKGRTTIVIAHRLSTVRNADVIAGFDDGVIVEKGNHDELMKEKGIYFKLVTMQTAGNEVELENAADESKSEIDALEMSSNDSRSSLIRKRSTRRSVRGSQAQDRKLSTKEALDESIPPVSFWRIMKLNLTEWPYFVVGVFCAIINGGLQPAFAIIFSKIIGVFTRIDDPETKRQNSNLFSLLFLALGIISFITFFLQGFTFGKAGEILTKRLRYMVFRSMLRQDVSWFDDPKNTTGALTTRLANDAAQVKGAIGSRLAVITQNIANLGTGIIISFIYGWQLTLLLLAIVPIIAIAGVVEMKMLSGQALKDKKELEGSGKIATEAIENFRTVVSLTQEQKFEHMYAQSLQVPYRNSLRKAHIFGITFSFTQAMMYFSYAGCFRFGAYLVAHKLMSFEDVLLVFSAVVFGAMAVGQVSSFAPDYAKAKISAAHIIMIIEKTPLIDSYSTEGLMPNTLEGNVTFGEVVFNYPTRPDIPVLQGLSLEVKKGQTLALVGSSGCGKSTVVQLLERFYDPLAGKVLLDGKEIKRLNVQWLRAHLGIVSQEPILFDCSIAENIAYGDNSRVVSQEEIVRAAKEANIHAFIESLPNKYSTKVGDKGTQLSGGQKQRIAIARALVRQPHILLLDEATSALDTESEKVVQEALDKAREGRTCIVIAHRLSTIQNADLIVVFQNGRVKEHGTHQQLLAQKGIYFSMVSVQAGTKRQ
Papp A→B at 10 µM [1] [×10⁻⁶ cm/s],IC50 [2] [nM],remaining at 1 h [3] [%],remaining at 1 h [4] [%],Compound,inhibition at 10 µM (hERG (KCNH2)) [%]
8.69,37.3,56,40.5,COCCN1CCN(c2ccc(Nc3nccc(-c4c(-c5cccnc5)nn5c4COCC5)n3)cc2)CC1,3.6
4.37,–,–,–,CN1CCN(c2ccc(Nc3nccc(-c4c(-c5cccnc5)nn5c4COCC5)n3)cc2)CC1,–
0.906,–,–,–,c1cncc(-c2nn3c(c2-c2ccnc(Nc4ccc(N5CCNCC5)cc4)n2)COCC3)c1,–
–,> 100,14.8,2.1,COc1ccc(Nc2nccc(-c3c[nH]nc3-c3cccnc3)n2)cc1,–
